{"source": "paper PMC3306999", "about": "(Journal of Toxicology, 2012)", "key": {"MAO-B [1]": {"target": "T1, MAO-B (Rattus norvegicus, UniProt P19643)", "T1 construct": "from tissue; host or cells: rat cerebellum homogenate (dams and PD21 offspring)", "T1 sequence (P19643 whole entry)": "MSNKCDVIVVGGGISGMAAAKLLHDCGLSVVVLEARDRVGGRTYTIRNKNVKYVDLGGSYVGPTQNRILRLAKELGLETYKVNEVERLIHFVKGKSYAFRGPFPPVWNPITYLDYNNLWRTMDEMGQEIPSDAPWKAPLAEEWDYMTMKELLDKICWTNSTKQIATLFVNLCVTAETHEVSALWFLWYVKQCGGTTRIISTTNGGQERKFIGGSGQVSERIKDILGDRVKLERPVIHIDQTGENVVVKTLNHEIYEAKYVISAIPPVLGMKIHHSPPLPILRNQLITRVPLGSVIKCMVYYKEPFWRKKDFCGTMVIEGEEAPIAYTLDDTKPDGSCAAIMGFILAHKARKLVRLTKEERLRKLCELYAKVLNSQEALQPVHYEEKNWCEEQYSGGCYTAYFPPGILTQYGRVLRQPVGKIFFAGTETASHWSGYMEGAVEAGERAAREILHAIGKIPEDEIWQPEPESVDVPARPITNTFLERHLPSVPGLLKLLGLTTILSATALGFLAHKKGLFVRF", "test": "Cerebellar MAO-B activity (radiochemical, 14C-PEA) after perinatal exposure", "assay_type": "in vivo", "conditions": "for decrease of cerebellar MAO-B activity: male pups PD21, maternal oral MeHg 1 mg/kg/day GD7-PND7 and/or PCB153 20 mg/kg/day GD10–GD16, vs control 19.26 ± 2.05 nmol/mg protein/h", "protocol": "(§1) The experimental regimen comprises 0.5 and 1 mg MeHg/kg (body weight) bw/day, administered to rat dams in the drinking water from gestational day (GD)7 to postnatal (PD)7, and/or PCB153 (20 mg/kg/day) dissolved in corn oil, administered to rats from GD10 to GD16.\n(§2) The endpoints investigated in rats included total cholinergic MRs and MAO-B activity in cerebellum and total MRs in lymphocytes at weaning (i.e., PD21) both in dams and their offspring.\n(§3) At the day of sacrifice, rat brains were rapidly dissected on ice to isolate cerebellum from dams and offspring and stored at −80°C until the analyses were performed. Spleens were also collected.\n(ii) MAO-B activity was determined radiochemically as described by Young et al., 1986 [71] using 10 μM ^14C-PEA as the substrate. Specific MAO-B activity was determined in the presence of 100 μM pargyline hydrochloride. The reaction was started by addition of ^14C-PEA to 50 μL of tissue homogenate (0.2 mL final volume) and stopped by addition of 0.1 mL citric acid 2 M after a 15-min incubation at 37°C. Deaminated reaction products were extracted into 3 mL toluene-ethylacetate (1 : 1, v/v) and the radioactivity contained in a 1-mL aliquot of the organic phase was counted in scintillation counter. The enzyme activity was expressed as nmol/mg protein/h."}, "[2]": {"system": "cholinergic muscarinic receptors (MRs)", "assay_type": "in vivo, rat", "conditions": "for increase of cerebellar MRs density (Bmax): MeHg 1 mg/kg/day GD7-PND7; for effect on cerebellar dissociation constant (Kd) of [3H]QNB: rat, in vivo"}, "[3]": {"target": "cholinergic muscarinic receptors (MRs) in lymphocytes", "test": "Spleen lymphocyte MR density and affinity after perinatal exposure", "assay_type": "in vivo, rat", "protocol": "as §1, §2, §3\n(i) Rat lymphocytes were obtained from the spleen of controls and differently treated animals. MR density and affinity in rat lymphocytes were determined as described in [52]."}, "[4]": {"assay_type": "in vivo, rat", "protocol": "as §1\nMeasurements of total Hg in cerebellum and blood also complemented the molecular studies to correlate neurochemical changes with the internal doses (see methods in [43, 52, 73])."}, "[5]": {"assay_type": "in vivo, rat", "conditions": "MeHg 1 mg/kg/day; whole brain"}, "MAO-B [6]": {"system": "MAO-B", "conditions": "St. Lawrence River (Lake St. Pierre, Quebec) fish-eating population; ref Stamler et al. 2006 [68]; cited from earlier work"}, "[7]": {"conditions": "21-day-old, same treatments, mean ± S.D."}}, "note": "Like-named read-outs stand apart in the source and are kept apart here."}
{"smiles": "[CH3][Hg][Cl]", "note": "[MeHg, methylmercury]", "values": [{"measurement": "effect on MAO-B activity", "setting": "MAO-B [1]; lower MeHg dose 0.5 mg/kg/day GD7-PND7, male and female offspring", "result": "no effects"}, {"measurement": "decrease of cerebellar MAO-B activity", "setting": "MAO-B [1]", "result": 35, "unit": "%"}, {"measurement": "increase of cerebellar MRs density (Bmax)", "setting": "[2]; dams, PD21", "result": 87, "unit": "%"}, {"measurement": "effect on cerebellar MR density", "setting": "[2]; lower MeHg dose 0.5 mg/kg/day alone or in combination with PCB153, mother and offspring", "result": "did not cause any change"}, {"measurement": "increase of cerebellar MRs density (Bmax)", "setting": "[2]; male pups PD21", "result": 27, "unit": "%"}, {"measurement": "effect on cerebellar dissociation constant (Kd) of [3H]QNB", "setting": "[2]", "result": "did not affect"}, {"measurement": "effect on lymphocyte Kd values", "setting": "[3]; MeHg 1 mg/kg/day, dams and offspring", "result": "absence of any change"}, {"measurement": "increase of lymphocyte MR density (Bmax)", "setting": "[3]; dams, MeHg 1 mg/kg/day GD7-PND7, vs control 33 ± 4 fmol/million cells", "result": 139, "unit": "%"}, {"measurement": "increase of lymphocyte MR density (Bmax)", "setting": "[3]; female offspring 21 days old, MeHg 1 mg/kg/day, vs control 37 ± 4 fmol/million cells", "result": 73, "unit": "%"}, {"measurement": "effect on lymphocyte Kd values", "setting": "[3]; lower MeHg dose 0.5 mg/kg/day", "result": "devoid of any effect"}, {"measurement": "effect on lymphocyte MR density", "setting": "[3]; lower MeHg dose 0.5 mg/kg/day, all groups, day 21 postpartum", "result": "did not significantly differ"}, {"measurement": "increase of lymphocyte MR density (Bmax)", "setting": "[3]; male offspring 21 days old, MeHg 1 mg/kg/day, vs control 41 ± 8 fmol/million cells", "result": 49, "unit": "%"}, {"measurement": "Blood Hg, Dams", "setting": "[4]; 1 mg MeHg/kg bw/day GD7-PD7 and/or 20 mg PCB153/kg bw/day GD10–GD16, mean ± S.D.", "result": "11.33 ± 2.26", "unit": "n = 4 μg/ml"}, {"measurement": "Blood Hg, Offspring Female", "setting": "[4]; [7]", "result": "1.31 ± 0.40", "unit": "n = 4 μg/ml"}, {"measurement": "Blood Hg, Offspring Male", "setting": "[4]; [7]", "result": "1.35 ± 0.40", "unit": "n = 4 μg/ml"}, {"measurement": "Brain Hg, Offspring Female", "setting": "[4]; [7]", "result": "1.52 ± 0.33", "unit": "n = 4 μg/g"}, {"measurement": "Brain Hg, Offspring Male", "setting": "[4]; [7]", "result": "1.67 ± 0.43", "unit": "n = 4 μg/g"}, {"measurement": "Hg in rat blood at PD21", "setting": "[4]; perinatal 1 mg MeHg/kg/day", "result": 1300, "unit": "ppb"}, {"measurement": "cerebral Hg levels in weaning rats", "setting": "[4]; perinatal 1 mg MeHg/kg/day", "result": "1.5–2.8 ppm"}, {"measurement": "blood Hg levels in weaning rats", "setting": "[4]; perinatal 1 mg MeHg/kg/day, both pup genders", "result": "1.3 ± 0.4", "unit": "µg/mL"}, {"measurement": "Hg levels in pup blood", "setting": "[4]; pups, both genders, MeHg 1 mg/kg/day", "result": "1.35 ± 0.4", "unit": "mg/L"}, {"measurement": "Brain Hg, Dams", "setting": "[4]; same treatments", "result": 7.53, "unit": "µg/g"}, {"measurement": "brain Hg concentration, mother versus offspring", "setting": "[5]", "result": "about five-fold higher"}, {"measurement": "blood-Hg concentrations associated with MeHg-induced reduction in MAO-B activity", "setting": "MAO-B [6]", "result": "above 3.4 μg/L"}]}
{"smiles": "Clc1cc(Cl)c(-c2cc(Cl)c(Cl)cc2Cl)cc1Cl", "note": "[PCB153, 2,2′,4,4′,5,5′-hexachlorobiphenyl]", "values": [{"measurement": "decrease of cerebellar MAO-B activity", "setting": "MAO-B [1]", "result": 45, "unit": "%"}, {"measurement": "effect on cerebellar MRs density", "setting": "[2]; adult and offspring PD21, PCB153 20 mg/kg/day GD10–GD16 alone or with MeHg 1 mg/kg/day", "result": "did not modify"}, {"measurement": "effect on cerebellar dissociation constant (Kd) of [3H]QNB", "setting": "[2]", "result": "did not affect"}, {"measurement": "effect of PCB153 coexposure on brain Hg concentrations", "setting": "[4]; MeHg 1 mg/kg/day + PCB153", "result": "not affected"}]}
